Values of other authors as cited in patent publication US20110009340A1, “COMBINATION OF AN IRON CHELATOR AND AN IMMUNOSUPPRESSANT AND USE THEREOF” (NOVARTIS AG, priority 2008, published 2011).

- solubility in methanol (methanol): slightly soluble
- solubility in water (water): freely soluble
SMILES: CC(=O)N(O)CCCCCNC(=O)CCC(=O)N(O)CCCCCNC(=O)CCC(=O)N(O)CCCCCN.CS(=O)(=O)O [Deferoxamine mesylate USP, N-[5-[3-[(5-aminopentyl)hydroxycarbamoyl]propionamido]pentyl]-3-[[5-(N-hydroxyacetamido)pentyl]carbamoyl]propionohydroxamic acid monomethanesulfonate (salt)]
